In patent publication US20240197813A1, “TREATMENT OF DYSPHAGIA” (OT4B, priority 2021, published 2024):
“Also recorded” adds a separate entry of the source.

Assays:
[1] = system: dysphagia in patient with Prader-Willi syndrome; test: Case report PATIENT 1: daily intranasal oxytocin, videofluoroscopic swallow study (VFSS); type: in vivo, human; conditions: PWS patient, 8 IU daily intranasal, 3 weeks
Source text: PATIENT 1 was […] with Prader-Willi syndrome due to maternal uniparental disomy diagnosed soon after at birth.
The videofluoroscopic swallow study (VFSS) was abnormal with prolonged oesophageal transit and decreased peristalsis and abnormal closure of upper oesophageal sphincter.
They received 8IU of daily intranasal OXT during 3 weeks.

[2] = system: dysphagia in patient with neurodevelopmental disorder and hypothalamic disorder; test: Case report PATIENT 2: daily intranasal oxytocin, VFSS and clinical symptoms; type: in vivo, human; conditions: 16 IU daily intranasal, 3 weeks
Source text: PATIENT 2 was […]. They suffered from neurodevelopmental disorder and presented hypothalamic disorder.
The VFSS was abnormal including slow pharyngeal transit with pharyngeal residues and slow oesophageal transit with oesophageal reflux and stasis.
They received daily 16 IU of intranasal OXT during 3 weeks.

[3] = system: infants with PWS under 6 months old; conditions: cited from earlier work

Q: For `CC[C@H](C)[C@@H]1NC(=O)[C@H](Cc2ccc(O)cc2)NC(=O)[C@@H](N)CSSC[C@@H](C(=O)N2CCC[C@H]2C(=O)N[C@@H](CC(C)C)C(=O)NCC(N)=O)NC(=O)[C@H](CC(N)=O)NC(=O)[C@H](CCC(N)=O)NC1=O` [oxytocin], which VFSS overall [1] is on record?
A: improved VFSS

Q: And the “oesophageal transit (VFSS)” value [1]?
A: improved oesophageal transit; also recorded: improve esophageal transit

Q: And the “peristalsis (VFSS)” value [1]?
A: complete normalization of peristalsis

Q: And the tolerability of treatment [1]?
A: well tolerated

Q: What about the “upper oesophageal sphincter closure (VFSS)” value [1] of the same compound?
A: normal upper oesophageal sphincter closure; also recorded: complete normalization

Q: What about the “clinical symptoms of dysphagia” value [2] of the same compound?
A: improved clinical symptoms of dysphagia

Q: And the oesophageal transit [2]?
A: normalize

Q: And the “oropharyngeal initiation and synchronisation” value [2]?
A: normalize oropharyngeal initiation and synchronization

Q: And the “stasis and reflux on VFSS after treatment” value [2]?
A: neither stasis nor reflux

Q: And the tolerability of treatment [2]?
A: well tolerated

Q: What about the oesophageal transit ([2]; listed as OXT) of the same compound?
A: normalization of oesophageal transit

Q: What about the “oropharyngeal initiation and synchronisation” value ([2]; listed as OXT) of the same compound?
A: normalization of oropharyngeal initiation and synchronisation

Q: And the “tolerability of intranasal administration” value [3]?
A: well-tolerated

Q: And the “feeding and social skills” value ([3]; intranasal)?
A: significantly improves
